The values that follow come from patent publication US9745266B2 (THE REGENTS OF THE UNIVERSITY OF COLORADO, A BODY CORPORATE, priority 2013, dated 2017).

Values after ≈ are worked out from the molar mass of the structure shown. Read-outs that look alike come from different tables or passages of the source.

For data set [1], the system named is MRSA ATCC 33592. In words: Minimum resensitizing concentration (MRC), modified broth microdilution. Type of data set: cell-based, S. aureus. Particulars: MRSA ATCC 33592; meropenem at 4 μg/ml. Here is the method:
(§1) For these activity tests, AMOXICILLIN® was used in combination with clavulanic acid (a.k.a., AUGMENTIN®), CEFAZOLIN®, and MEROPENEM® (an ultra-broad-spectrum carbapenem). […] To assess activity of each analog as a resistance-modifying agent (RMA), a modified broth microdilution assay was used. Briefly, this involves incubating MRSA with 2-fold serial dilutions of a compound in the presence of each individual antibiotic at its Clinical Laboratory Standards Institutes (CLSI)-defined sensitive concentration. For AMOXICILLIN®/clavulanic acid, this concentration is 4/2 μg/ml (8-fold potentiation), for CEFAZOLIN®, 8 μg/ml (16-fold potentiation) and for MEROPENEM®, 4 μg/ml (4-fold potentiation). Following overnight incubation, plates were examined for bacterial growth, or lack thereof. Compounds were tested at concentrations ranging from 0.5-32 μg/ml. […] The half growth inhibitory concentration (GI50) of each analog was determined by fitting the data using KaleidaGraph (v4.1.1, Synergy Software).
(§2) A modified broth microdilution assay was employed by incubating MRSA (ATCC: BAA-44) with Of1 in 2-fold series dilution in the presence of individual antibiotics at the highest sensitive concentration at 37° C. overnight. […] The MRC values were also determined for another three MRSA strains. […] Furthermore, the mammalian toxicity of Of1 was evaluated using human liver hepatocellular carcinoma HepG2 cell line in CellTiter Glo™ mammalian viability assay (Promega).
(§3) MRC screens were performed as follows: antibiotic MIC values where S. aureus is considered susceptible were determined from the CLSI handbook supplement. Analogs of Of1 were diluted to 5 mg/ml in DMSO. Antibiotic was prepared at twice the intended final concentration in Mueller Hinton Broth (MHB). For amoxicillin/clavulanic acid, the initial concentration was 8/4 μg/ml, for meropenem 8 μg/ml and for cefazolin 16 μg/ml. 50 μl of the antibiotic containing media was added to each well of 96 well plates and 100 μl was added to the top row. 1.28 μl of 5 mg/ml alkaloid solution was added to the top row of each plate to afford a concentration of 64 μg/ml in the top row of each plate and two fold serial dilutions were performed down the columns. Once the plates were prepared, a day culture of MRSA was diluted to OD600 0.002 and 50 μl was added to each well. The final concentration of MRSA was OD600 0.001, the final concentration of amoxicillin/clavulanic acid was 4/2 μg/ml, the final concentration of meropenem was 4 μg/ml the final concentration of cefazolin was 8 μg/ml, and the highest concentration of Of1 analog tested was 32 μg/ml. Plates were incubated overnight at 37° C. with shaking. The MRC value was determined as the concentration of Of1 analog in the presence of antibiotic at which there was no observable overnight growth.
(Broth dilution looks for growth in wells or tubes with falling amounts of substance.)

The test system of data set [2] is MRSA ATCC BAA-44. Described as above. Type of data set: cell-based, S. aureus. Particulars: MRSA ATCC BAA-44. Here is the method:
as §1, §2, §3

For the next data set, the system named is HeLa cells. In words: Mammalian cytotoxicity, CellTiter-Glo viability assay. Particulars: 24 hours. It is filed as cell-based, human. Here is the method: To evaluate the cytotoxicity of Of1 in mammalian cells, a cell viability assay was carried out using CellTiter-Glo luminescent cell viability assay kit (Promega). Human cervixcal adenocarcinoma HeLa cells were seeded on white, cell-culture treated 96-well plates (Corning: 3917) with Dulbecco's modified Eagle's medium (DMEM) supplemented with 10% fetal calf serum (FCS), 1% penicillin/streptomycin, at the densities of 20,000 cells/well. The medium volume for each well was 100 μL. Cells were incubated at 37° C. in 5% CO2/95% air for 16 hours. The medium was removed from each well and replaced with 99 μL of warmed fresh medium. To each well, 1 μL of Of1 analog was added in DMSO to final concentrations of 0.5-32 μg/mL. Each series was performed in triplicate. After incubation at 37° C. for another 24 hours, the plates were equilibrated to room temperature for 30 minutes. 100 μL of CellTiter-Glo reagent (Promega) was added to each well and mixed for 2 minutes on an orbital shaker. The plate was incubated at room temperature for another 10 minutes to stabilize luminescent signal. The luminescence of each sample was recorded in an Envision Multilabel Plate Reader (Perkin Elmer).
(In general: In ATP-based viability assays light output follows the ATP content of the culture.)

For data set [3], the system named is MRSA ATCC BAA-44. Description: MIC, CLSI broth microdilution. Type of data set: cell-based, S. aureus. Particulars: MRSA ATCC BAA-44, compound alone.
For data set [4], the system named is MRSA ATCC BAA-44. In words: MIC in the presence of 20 μM Of1 / alkaloid. Particulars: MRSA ATCC BAA-44; for fold of potentiation: MIC / MIC (+20 μM Of1); for MIC (+Of1): in the presence of 20 μM Of1. It is filed as cell-based, S. aureus. Here is the method:
Indoline alkaloid compounds were then screened for the ability to potentiate the activity of methicillin against MRSA. A multi-drug resistant MRSA strain (ATCC: BAA-44) was selected for the initial screening. […] To each well, 20 μM of each individual indoline alkaloid was added and the plates were incubated at 37° C. for 16 hrs.
The MRSA strain ATCC BAA-44 and the methicillin-sensitive S. aureus (MSSA) strain ATCC 25923 were used to determine the MIC values of various antimicrobial compounds in the presence of 20 μM Of1. The experiment was conducted similarly to the CLSI MIC determination described previously; however, MHB was supplemented with 40 μM Of1 prior to set up and inoculation. The final concentration of Of1 after inoculation with BAA-44 was 20 μM.

Data set [5] deals with MRSA ATCC 33592. Description: MIC, broth microdilution. Type of data set: cell-based, S. aureus. Particulars: Staphylococcus aureus. Here is the method: as §1, with “Activities listed in the table show the ability of the compounds of the invention to resensitize MRSA to a collection of β-lactam antibiotics. For these” for “For these”, “Synergy Software). Compounds 1a-1 are synthesized as shown in Scheme 1 below.” for “Synergy Software).”
The minimal inhibitory concentrations (MICs) of active Of1 analogs were determined by the broth microdilution method detailed in the Clinical and Laboratory Standards Institute handbook. […]

Where [6] appears, read: Staphylococcus aureus, read-out: MIC.

In the case of “2-(6-Bromo-4-methylidene-2,3,4,4a,9,9a-hexahydro-1H-carbazol-4a-yl)-N-(4-chlorobenzenesulfonyl)-S-(4-chlorophenyl)ethane-1-sulfonamido [Cpd 1h]”, the MRC meropenem in the data set with MRSA ATCC 33592 [1] is more than 32 µg/mL. Also, the MRC amox/clav with MRSA ATCC BAA-44 [2] (amoxicillin/clavulanic acid at 4/2 μg/ml) was more than 32 µg/mL. In addition, the MRC cefazolin in the data set with MRSA ATCC BAA-44 [2] (cefazolin at 8 μg/ml) was more than 32 µg/mL. Moreover, in the data set on MRSA ATCC BAA-44 [2] (in presence of methicillin), the MRC methicillin was more than 32 µg/mL.

Broadly, the GI50 is the concentration at which growth is held to half of that of the control. Read a high GI50 as lower sensitivity of the cells. In the case of `C=C1CCC[C@@H]2Nc3c(F)cc(Br)cc3[C@]12CCN` (stereo in doubt) [Cpd 11b, 2-(6-Bromo-8-fluoro-4-methylidene-2,3,4,4a,9,9a-hexahydro-1H-carbazol-4a-yl)ethan-1-amine], the GI50 with HeLa cells is 16.2 µg/mL (≈ 49.8 µM).

What is called MIC is the smallest concentration in the dilution series that meets the test's criterion for growth inhibition. In the case of `CC1=C(C(=O)O)N2C(=O)[C@@H](NC(=O)[C@H](N)c3ccccc3)[C@H]2SC1` [cephalexin], in the data set with MRSA ATCC BAA-44 [3] (setting [6]), the minimum inhibitory concentration (MIC) is 256 µg/mL (≈ 737 µM). Also, in the data set on MRSA ATCC BAA-44 [4], the fold of potentiation is on record as 16 and the “MIC (+Of1)” value was 16 µg/mL.

On to `C[C@@H](O)[C@H]1C(=O)N2C(C(=O)O)=C(SCCN=CN)C[C@H]12` [imipenem], for which the MIC in the data set with MRSA ATCC BAA-44 [3] (setting [6]) was 0.5 µg/mL (≈ 1.67 µM). Further, in the data set with MRSA ATCC BAA-44 [4], the fold of potentiation is on record as 8 and the “MIC (+Of1)” value was “.0625 µg/mL”.

For the compound `C[C@@H](O)[C@H]1C(=O)N2C(C(=O)O)=C(S[C@@H]3CN[C@H](C(=O)N(C)C)C3)[C@H](C)[C@H]12` [meropenem], the MIC in the data set on MRSA ATCC BAA-44 [3] (setting [6]) was determined as 4 µg/mL (≈ 10.4 µM). Moreover, in the data set with MRSA ATCC BAA-44 [4], the fold of potentiation is given as 16 and the “MIC (+Of1)” value came out at 0.25 µg/mL. In the data set on MRSA ATCC 33592 [5], the MIC was 16 µg/mL.

On to `COc1cccc(OC)c1C(=O)N[C@@H]1C(=O)N2[C@@H]1SC(C)(C)[C@@H]2C(=O)O` [methicillin], for which the MIC with MRSA ATCC BAA-44 [3] (setting [6]) came to 128 µg/mL (≈ 336 µM). In the data set with MRSA ATCC BAA-44 [4], the fold of potentiation stood at 16 and the “MIC (+Of1)” value is 8 µg/mL.

Take `Cc1onc(-c2ccccc2)c1C(=O)N[C@@H]1C(=O)N2[C@@H]1SC(C)(C)[C@@H]2C(=O)O` [oxacillin]: in the data set with MRSA ATCC BAA-44 [3] (setting [6]), the minimum inhibitory concentration (MIC) worked out at 64 µg/mL (≈ 159 µM). Further, the “MIC (+Of1)” value in the data set on MRSA ATCC BAA-44 [4] came to 0.5 µg/mL.

For `CN(C)[C@@H]1C(O)=C(C(N)=O)C(=O)[C@@]2(O)C(O)=C3C(=O)c4c(O)cccc4[C@@](C)(O)[C@H]3C[C@@H]12` [tetracycline], the minimal inhibitory concentration (MIC) in the data set on MRSA ATCC BAA-44 [3] (setting [6]) is 64 µg/mL (≈ 144 µM). Also, in the data set on MRSA ATCC BAA-44 [4], the fold of potentiation was 1 and the “MIC (+Of1)” value came out at 64 µg/mL.

As to amoxicillin/clavulanate, the MIC against MRSA ATCC BAA-44 [3] is 32/16. Moreover, in the data set with MRSA ATCC BAA-44 [4], the fold of potentiation amounted to 8 and the “MIC (+Of1)” value was 4/2.
